Assay: molar heat capacity at constant pressure; xn = mol fraction of the nth substance listed
Settings: 100 kPa, Liquid, Small sample (50 mg) DSC

C[P+](c1ccccc1)(c1ccccc1)c1ccccc1.[Br-] [methyltriphenylphosphonium bromide] + OCCO
x1 = 0.2
Settings	molar heat capacity at constant pressure [J/K/mol]
298.15 K	237.6
300.65 K	238.6
303.15 K	239.4
305.65 K	240.8
308.15 K	241.6
310.65 K	242.4
313.15 K	243.4
315.65 K	244.5
318.15 K	245.2
320.65 K	246.1
323.15 K	247.2
325.65 K	247.9
328.15 K	248.9
330.65 K	249.8
333.15 K	250.8
335.65 K	251.8
338.15 K	252.7
340.65 K	253.5
343.15 K	254.3
345.65 K	255
348.15 K	255.5
350.65 K	255
353.15 K	256.7

O=C(O)CC(=O)O [propanedioic acid] + CCCC[N+](CCCC)(CCCC)CCCC.[Cl-]
x2 = 0.25
Settings	molar heat capacity at constant pressure [J/K/mol]
298.2 K	299.8
300.7 K	302.6
303.2 K	305.7
305.7 K	309.4
308.2 K	313.3
310.7 K	316.9
313.2 K	320.6
315.7 K	323.7
318.2 K	324.9
320.7 K	328.8
323.2 K	333.3
325.7 K	335.9
328.2 K	337.5
330.7 K	339.2
333.2 K	339.5
335.7 K	340
338.2 K	340.2
340.7 K	340.6
343.2 K	341.1
345.7 K	341.2
348.2 K	341.7
350.7 K	342
353.2 K	342.8

O=C(O)CC(=O)O [propanedioic acid] + C[N+](C)(C)CCO.[Cl-]
x2 = 0.5
Settings	molar heat capacity at constant pressure [J/K/mol]
298.15 K	226.9
300.65 K	227.6
303.15 K	228.3
305.65 K	228.8
308.15 K	229.4
310.65 K	230.2
313.15 K	230.6
315.65 K	231.1
318.15 K	231.7
320.65 K	232.3
323.15 K	232.7
325.65 K	233.2
328.15 K	233.8
330.65 K	234.3
333.15 K	234.9
335.65 K	235.8
338.15 K	237
340.65 K	238
343.15 K	238.4
345.65 K	238.9
348.15 K	239.5
350.65 K	239.9
353.15 K	240.8

CCCC[N+](CCCC)(CCCC)CCCC.[Cl-] [tetrabutylammonium chloride] + NC(N)=O
x1 = 0.8
Settings	molar heat capacity at constant pressure [J/K/mol]
308.2 K	590
310.7 K	593
313.2 K	598
315.7 K	601.2
318.2 K	602.6
320.7 K	600.6
323.2 K	601.5
325.7 K	602.9
328.2 K	601.7
330.7 K	603
333.2 K	604.9
335.7 K	605.1
338.2 K	603.2
340.7 K	604
343.2 K	604.4
345.7 K	605.2
348.2 K	604.8
350.7 K	605.4
353.2 K	605.9

CCCC[N+](CCCC)(CCCC)CCCC.[Cl-] [tetrabutylammonium chloride] + OCC(O)CO
x1 = 0.17
Settings	molar heat capacity at constant pressure [J/K/mol]
298.2 K	281.2
300.7 K	282.5
303.2 K	283.9
305.7 K	285.4
308.2 K	286.9
310.7 K	288.1
313.2 K	289.4
315.7 K	290.7
318.2 K	292
320.7 K	293.4
323.2 K	294.5
325.7 K	296.1
328.2 K	297.4
330.7 K	298.9
333.2 K	300.4
335.7 K	301.9
338.2 K	303.2
340.7 K	304.6
343.2 K	305.7
345.7 K	306.9
348.2 K	307.8
350.7 K	308.6
353.2 K	310.9

CCCC[N+](CCCC)(CCCC)CCCC.[Cl-] [tetrabutylammonium chloride] + OCCO
x1 = 0.25
Settings	molar heat capacity at constant pressure [J/K/mol]
298.2 K	288.3
300.7 K	289.6
303.2 K	291
305.7 K	292.2
308.2 K	293.2
310.7 K	294.5
313.2 K	295.8
315.7 K	296.8
318.2 K	297.9
320.7 K	299.5
323.2 K	300.5
325.7 K	301.2
328.2 K	302.4
330.7 K	303.5
333.2 K	304.8
335.7 K	305.9
338.2 K	306.9
340.7 K	307.7
343.2 K	308.5
345.7 K	309.1
348.2 K	309.6
350.7 K	310.6
353.2 K	312.6

CCCC[N+](CCCC)(CCCC)CCCC.[Cl-] [tetrabutylammonium chloride] + OCCOCCOCCO
x1 = 0.5
Settings	molar heat capacity at constant pressure [J/K/mol]
298.2 K	445
300.7 K	447.8
303.2 K	448.9
305.7 K	450.6
308.2 K	452.3
310.7 K	454.2
313.2 K	456.1
315.7 K	457.4
318.2 K	458.7
320.7 K	460.2
323.2 K	461.9
325.7 K	463
328.2 K	464.5
330.7 K	466.2
333.2 K	467.7
335.7 K	469.2
338.2 K	471.1
340.7 K	472.6
343.2 K	473.7
345.7 K	475.2
348.2 K	475.6
350.7 K	476
353.2 K	479.7

Source: the NIST ThermoML archive (doi:10.1021/acs.jced.5b00989)
